We go through twelve molecules from patent US20230285570A1, “THERAPEUTICALLY USEFUL CURE-PRO MOLECULES FOR E3 LIGASE MEDIATED DEGRADATION OF PROTEINS, AND METHODS OF MAKING AND USING THEM” (CORNELL UNIVERSITY, priority 2020, published 2023).

“Also recorded” adds a separate entry of the source.

Type in all cases: cell-based
Assay [1] concerns the target T1, BRD4 (Homo sapiens, UniProt O60885). In words: Summary of BRD4 degradation by CURE-PRO pairs, estimated from Western Blot or WES. Details: endogenous in cells. The protocol: (§1) Namalwa, Ramosm HeLa, MCF7, or HT29 HCT116 cells (2.5-3×10^6) were treated for 24 hours with the indicated compounds solubilized in DMSO. The cells were washed in ice-cold PBS and were then lysed in RIPA lysis buffer (150 mM NaCl, 5 mM EDTA, 1% NP-40, 0.5% sodium deoxycholate, 0.1% SDS, 50 mM Tris, pH 8.0.) with Roche protease inhibitor complete cocktail and phosphatase inhibitors (10 mM sodium fluoride, 10 mM sodium pyrophosphate, 1 mM sodium orthovanadate and 20 mM β-glycerophosphate). The total protein concentrations were determined by Bradford Protein Assay (Pierce) and 10-20 μg of protein was loaded onto 4-15% Tris-Glycine gradient gels (Biorad). After standard gel electrophoresis, the separated proteins were transferred to PVDF membrane by wet transfer. The immunoblots were then blocked for 1 hour in 5% skim milk in TBST or 5% BSA in TBST, according to manufacturer's instructions, before an overnight incubation at 4° C. with indicated antibodies and membranes. Membranes were then incubated with the appropriate horseradish peroxidase-conjugated secondary antibodies (1:5,000 dilution) for 1 h at room temperature and the bands were visualized using the Clarity Max Western ECL Substrate (Biorad) and the ChemiDoc Imaging System (Biorad). Signal was detected with ECL Western Blotting Substrate (Pierce) and X-ray film processed with a Konica SRX-101 X-ray film processor or captured by Bio-Rad's Chemidoc Imaging system.
(§2) WES Simple analysis was performed on WES system (ProteinSimple-Biotechne) according to the manufacturer's instructions. Total protein concentrations of cell lysates were determined by the Pierce BCA kit (Thermo Fisher). 3 μL of 0.3 μg/μL of the protein lysate was loaded onto a 12- to 230-kDa WES assay plate (ProteinSimple) where 300 nL sample was withdrawn through a capillary, subjected to electrophoretic separation of proteins by size, and followed by the simultaneous, HRP-based detection of proteins using the Anti-Rabbit Detection Module (Proteinsimple: #DM-001). The electropherograms were checked then the automatic peak detection was manually corrected if it was required.
(§3) A black check mark indicates efficacy of 30% to 70% or higher protein degradation.

In assay [2] the target is T1, BRD4. In words: CURE-PRO-mediated BRD4 degradation in HeLa cells, Western blot. Details: endogenous in cells; host or cells: HeLa. To be noted: 24 h. How it is done: All cell lines were purchased from ATCC or DSMZ and grown at 37° C. with 5% CO2. Human HeLa cells were cultured in complete growth medium (Dulbecco's modified Eagle's medium (DMEM) supplemented with 10% FBS); MCF7 cells were cultured in complete growth medium (Dulbecco's modified Eagle's medium (DMEM) supplemented with 10% FBS and 0.01 mg/ml human recombinant insulin (Sigma Aldrich); Namalwa and Ramos cells were cultured in complete growth medium (RPMI 1640 medium supplemented with 10% FBS); HCT116 and HT29 cells were cultured in complete growth medium (McCoy's 5a Medium supplemented with 10% FBS). For cellular degradation of BRD4 studies cells were seeded in a 12-well plate at 70-80% confluency, allowed to attach overnight, and incubated with the indicated compounds for the indicated time. When indicated, a 15-minute pretreatment with 10 μM pomalidomide, 10 μM VHL298, 10 μM Nutlin3a, 1 μM MG-132 or 1 μM Carfilzomib was performed before the addition of CURE-PROs. For washout studies, after CURE-PRO treatment, media was aspirated and incubated with complete medium for the indicated time before lysis.
as §1
HeLa cells (2.5×10^6) were treated for 24 hours with the sample compounds solubilized in DMSO. Compounds were added at 1-10 μM each. Standardized protein samples were electrophoresed and imaged as described in the immunoblotting description above. FIGS. 6-18 depicts the CURE-PRO-mediated BRD4 degradation for BRD monomers (JQ1 derivatives comprising of catechol linkers), and CRBN ligands, 8048 and 8049 (pomalidomide derivatives comprising boronic acid linkers) combined in a 1:1 ratio.
HeLa cells (2.5×10^6) were treated for 24 hours with the compounds solubilized in DMSO. The compounds were added at 10 μM each. Standardized protein samples were electrophoresed and imaged as described in the immunoblotting section above. FIGS. 23-27 depicts the CURE-PRO-mediated BRD4 degradation for BRD monomers (JQ1 derivatives comprising of boronic acid linkers), and CRBN ligands, 8046, 8047 and 8066 (pomalidomide derivatives comprising diol linkers) combined in a 1:1 ratio.
HeLa cells (2.5×10^6) were treated for 24 hours with the compounds solubilized in DMSO. Compounds were added at 10 μM and 100 μM each. Standardized protein samples were electrophoresed and imaged as described in the immunoblotting section above.
HeLa cells (2.5×10^6) were treated for 24 hours with the compounds solubilized in DMSO. Compounds were added at 1 nM-1 μM each. […]
Background: Immunoblotting shows a protein as a band on a membrane.

The next assay has as its target c-MYC (Homo sapiens, UniProt P01106). Briefly: Summary of C-MYC degradation by CURE-PRO pairs, estimated from Western Blot or WES. Details: endogenous in cells; host or cells: HT29. To be noted: for Degradation of C-MYC, combination with CRBN ligand 8046: Table 7, aryl-boronic acid MYC ligand + 8046; for Degradation of C-MYC, combination with CRBN ligand 8066: Table 7, aryl-boronic acid MYC ligand + 8066; for Degradation of C-MYC, combination with MDM2 ligand 8310: Table 11, aromatic 1,2-diol MYC ligand + 8310; for Degradation of C-MYC, combination with VHL ligand 8298: Table 12, aromatic 1,2-diol MYC ligand + 8298; for Degradation of C-MYC, combination with CRBN ligand 8048: Table 10, aromatic 1,2-diol MYC ligand + 8048; for Degradation of C-MYC, combination with CRBN ligand 8049: Table 10, aromatic 1,2-diol MYC ligand + 8049. The protocol:
as §1, §2, §3

c-MYC, sequence (P01106 whole entry): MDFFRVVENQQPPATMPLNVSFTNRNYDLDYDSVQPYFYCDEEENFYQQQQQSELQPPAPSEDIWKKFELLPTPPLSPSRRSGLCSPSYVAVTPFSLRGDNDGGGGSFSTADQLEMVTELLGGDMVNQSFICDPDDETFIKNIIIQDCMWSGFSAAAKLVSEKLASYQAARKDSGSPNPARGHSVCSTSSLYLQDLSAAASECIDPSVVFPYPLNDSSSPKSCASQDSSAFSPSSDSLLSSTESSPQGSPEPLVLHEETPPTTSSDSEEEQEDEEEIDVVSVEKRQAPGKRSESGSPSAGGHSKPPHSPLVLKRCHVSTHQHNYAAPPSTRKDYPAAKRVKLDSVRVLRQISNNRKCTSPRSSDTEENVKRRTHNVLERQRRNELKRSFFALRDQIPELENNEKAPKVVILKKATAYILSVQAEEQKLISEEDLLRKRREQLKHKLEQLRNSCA

Consider `CCNC(=O)C[C@@H]1N=C(c2ccc(Cl)cc2)c2cc(OCCOCCOCCOCCOCCOCCNC(=O)c3cccc(O)c3O)ccc2-n2c(C)nnc21` [BRD-N71, N-(17-(((4S)-6-(4-chlorophenyl)-4-(2-(ethylamino)-2-oxoethyl)-1-methyl-4H-benzo[f][1,2,4]triazolo[4,3-a][1,4]diazepin-8-yl)oxy)-3,6,9,12,15-pentaoxaheptadecyl)-2,3-dihydroxybenzamide], for which, on BRD4 [1] (Table 4, aromatic 1,2-diol BRD4 ligand + 8048), the “Degradation of BRD4, combination with CRBN ligand 8048” value is reported as “√ (A black check mark indicates efficacy of 30% to 70% or higher protein degradation)”. Besides, the “Degradation of BRD4, combination with MDM2 ligand 8312” value at BRD4 [1] (Table 5, aromatic 1,2-diol BRD4 ligand + 8312) was “√ (A black check mark indicates efficacy of 30% to 70% or higher protein degradation)”. In addition, the BRD4 degradation result on BRD4 [2] (BRD4 monomer alone, HeLa, 1-10 μM) was “there is no degradation of BRD4”; on BRD4 [2] (co-treated 1:1 with CRBN ligand 8048, HeLa, 1-10 μM each), “causes degradation of BRD4; also recorded: Some selectivity for BRD-N71 and 8048 is noted”; at BRD4 [2] (co-treated 1:1 with CRBN ligand 8049, HeLa, 1-10 μM each), “no evidence of BRD4 degradation”. In the case of `CCc1ccc(/C=C2\SC(=O)N(CCCc3cccc(B(O)O)c3)C2=O)cc1` [MYC- E02], at c-MYC, the “Degradation of C-MYC, combination with CRBN ligand 8046” value was “√ (A black check mark indicates efficacy of 30% to 70% or higher protein degradation)” and the “Degradation of C-MYC, combination with CRBN ligand 8066” value is “√ (A black check mark indicates efficacy of 30% to 70% or higher protein degradation)”. On to `O=C(NCc1ccc(B(O)O)cc1)c1cccc(Nc2ccc([N+](=O)[O-])c3nonc23)c1` [MYC- E09], for which the “Degradation of C-MYC, combination with CRBN ligand 8066” value at c-MYC is “√ (A black check mark indicates efficacy of 30% to 70% or higher protein degradation)”. Regarding `O=C(NCc1cccc(O)c1O)c1ccc(Nc2ccc([N+](=O)[O-])c3nonc23)cc1` [MYC- N18], the “Degradation of C-MYC, combination with MDM2 ligand 8310” value at c-MYC is given as “√ (A black check mark indicates efficacy of 30% to 70% or higher protein degradation)”. On the same count and under the same terms, for `O=C(NCCNC(=O)c1ccccc1Nc1ccc([N+](=O)[O-])c2nonc12)c1ccc(O)c(O)c1` [MYC- N21] the value was “√ (A black check mark indicates efficacy of 30% to 70% or higher protein degradation)”. Take `O=C(NCCNC(=O)c1cccc(O)c1O)c1ccccc1Nc1ccc([N+](=O)[O-])c2nonc12` [MYC- N22]: the “Degradation of C-MYC, combination with MDM2 ligand 8310” value on c-MYC is “√ (A black check mark indicates efficacy of 30% to 70% or higher protein degradation)”. On c-MYC (Table 11, aromatic 1,2-diol MYC ligand + 8312), the “Degradation of C-MYC, combination with MDM2 ligand 8312” value is given as “√ (A black check mark indicates efficacy of 30% to 70% or higher protein degradation)”.

As to `O=C(NCc1ccc(Cl)c(B(O)O)c1)c1ccccc1Nc1ccc([N+](=O)[O-])c2nonc12` [MYC-E18], the “Degradation of C-MYC, combination with CRBN ligand 8046” value on c-MYC is reported as “√ (A black check mark indicates efficacy of 30% to 70% or higher protein degradation)”.

With `CCc1ccc(/C=C2\SC(=O)N(CCNC(=O)c3cccc(O)c3O)C2=O)cc1` [MYC-N08], at c-MYC (Table 12, aromatic 1,2-diol MYC ligand + 8297), the “Degradation of C-MYC, combination with VHL ligand 8297” value was “√ (A black check mark indicates efficacy of 30% to 70% or higher protein degradation)”. In addition, the “Degradation of C-MYC, combination with VHL ligand 8298” value on c-MYC is “√ (A black check mark indicates efficacy of 30% to 70% or higher protein degradation)”. For the molecule `O=[N+]([O-])c1ccc(Nc2cccc(O)c2O)c2nonc12` [MYC-N11], the “Degradation of C-MYC, combination with CRBN ligand 8048” value at c-MYC is listed as “√ (A black check mark indicates efficacy of 30% to 70% or higher protein degradation)”.

On to `O=C(NCc1ccc(O)c(O)c1)c1ccccc1Nc1ccc([N+](=O)[O-])c2nonc12` [MYC-N15], for which, on c-MYC, the “Degradation of C-MYC, combination with CRBN ligand 8048” value was “√ (A black check mark indicates efficacy of 30% to 70% or higher protein degradation)” and the “Degradation of C-MYC, combination with CRBN ligand 8049” value is “√ (A black check mark indicates efficacy of 30% to 70% or higher protein degradation)”. Take `O=C(NCc1ccc(O)c(O)c1)c1ccc(Nc2ccc([N+](=O)[O-])c3nonc23)cc1` [MYC-N17]: on c-MYC, the “Degradation of C-MYC, combination with VHL ligand 8298” value is “√ (A black check mark indicates efficacy of 30% to 70% or higher protein degradation)”. As to `O=C(NCCN1C(=O)C/C(=C\c2ccc(F)cc2)C1=O)[C@H]1C[C@@H]2C[C@H]1[C@@H](O)[C@H]2O` [MYC-N30], on c-MYC, the “Degradation of C-MYC, combination with CRBN ligand 8048” value is listed as “√ (A black check mark indicates efficacy of 30% to 70% or higher protein degradation)” and the “Degradation of C-MYC, combination with CRBN ligand 8049” value is “√ (A black check mark indicates efficacy of 30% to 70% or higher protein degradation)”.
